Data reported in BindingDB's records for doi:10.1021/jm030306r (Merck Research Laboratories, 2003).

Biological target: Integrin alpha-IIb/beta-3 (Homo sapiens, UniProt P08514+P05106)
Assay: Inhibition of alphaIIb-beta3 integrin mediated platelet aggregation

Integrin alpha-IIb/beta-3, sequence (P05106 27-788 limits assumed): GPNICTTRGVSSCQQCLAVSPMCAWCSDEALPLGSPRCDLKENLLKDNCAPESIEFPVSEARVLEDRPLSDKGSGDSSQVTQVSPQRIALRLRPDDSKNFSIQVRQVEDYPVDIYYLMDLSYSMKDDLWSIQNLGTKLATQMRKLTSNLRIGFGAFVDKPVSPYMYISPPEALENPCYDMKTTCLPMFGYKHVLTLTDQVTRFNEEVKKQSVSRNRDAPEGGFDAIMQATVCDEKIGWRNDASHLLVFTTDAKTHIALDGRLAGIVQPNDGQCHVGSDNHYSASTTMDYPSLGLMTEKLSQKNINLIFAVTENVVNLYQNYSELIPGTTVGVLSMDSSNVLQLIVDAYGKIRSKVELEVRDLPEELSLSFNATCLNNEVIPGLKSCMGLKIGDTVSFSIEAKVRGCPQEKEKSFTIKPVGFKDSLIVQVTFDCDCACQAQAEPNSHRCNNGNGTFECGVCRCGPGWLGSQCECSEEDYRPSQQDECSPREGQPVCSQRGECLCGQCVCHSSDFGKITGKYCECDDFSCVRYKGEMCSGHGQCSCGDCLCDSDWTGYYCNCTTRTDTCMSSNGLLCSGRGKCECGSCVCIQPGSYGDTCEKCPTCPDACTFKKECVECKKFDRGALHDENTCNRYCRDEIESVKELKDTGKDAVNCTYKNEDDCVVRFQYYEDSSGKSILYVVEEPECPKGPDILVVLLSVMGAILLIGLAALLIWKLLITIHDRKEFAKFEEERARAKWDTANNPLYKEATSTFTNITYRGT
Integrin alpha-IIb/beta-3, sequence (P08514 32-887 limits assumed): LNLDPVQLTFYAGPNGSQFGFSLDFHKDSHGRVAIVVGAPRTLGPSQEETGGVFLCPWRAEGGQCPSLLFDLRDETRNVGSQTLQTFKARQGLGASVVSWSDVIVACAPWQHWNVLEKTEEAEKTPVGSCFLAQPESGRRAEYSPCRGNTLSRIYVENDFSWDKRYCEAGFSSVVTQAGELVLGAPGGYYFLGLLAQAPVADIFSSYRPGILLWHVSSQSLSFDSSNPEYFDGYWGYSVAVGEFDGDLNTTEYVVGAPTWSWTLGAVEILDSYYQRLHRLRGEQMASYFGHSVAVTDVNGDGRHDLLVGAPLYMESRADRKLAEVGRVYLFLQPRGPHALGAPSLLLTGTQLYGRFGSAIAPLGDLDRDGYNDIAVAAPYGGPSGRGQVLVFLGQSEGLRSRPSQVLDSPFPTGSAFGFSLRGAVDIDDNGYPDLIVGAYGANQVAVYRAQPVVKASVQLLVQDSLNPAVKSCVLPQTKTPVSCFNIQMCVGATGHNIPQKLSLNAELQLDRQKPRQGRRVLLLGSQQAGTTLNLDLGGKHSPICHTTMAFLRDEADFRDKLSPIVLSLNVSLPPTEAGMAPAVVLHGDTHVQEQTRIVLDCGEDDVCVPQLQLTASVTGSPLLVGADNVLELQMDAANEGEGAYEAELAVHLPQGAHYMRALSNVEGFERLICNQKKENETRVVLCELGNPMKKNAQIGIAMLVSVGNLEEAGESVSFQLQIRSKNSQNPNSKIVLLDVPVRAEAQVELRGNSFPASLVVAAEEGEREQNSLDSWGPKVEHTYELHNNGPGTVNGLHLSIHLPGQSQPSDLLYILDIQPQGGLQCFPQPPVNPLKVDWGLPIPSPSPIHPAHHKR
Integrin alpha-IIb/beta-3, sequence (P08514 891-1039 limits assumed): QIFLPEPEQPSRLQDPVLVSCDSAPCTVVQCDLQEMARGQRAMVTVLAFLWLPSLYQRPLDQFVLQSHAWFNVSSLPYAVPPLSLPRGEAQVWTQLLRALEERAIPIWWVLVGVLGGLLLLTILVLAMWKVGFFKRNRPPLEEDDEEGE

- IC50: 34.7 µM
SMILES: COc1ccc([C@H](CC(=O)O)N2CCN(CCCc3ccc4c(n3)NCCC4)C2=O)cn1 [(S)-3-(6-Methoxy-pyridin-3-yl)-3-{2-oxo-3-[3-(5,6,7,8-tetrahydro-[1,8]naphthyridin-2-yl)-propyl]-imidazolidin-1-yl}-propionic acid]
